# Assays:
# BHK cells = experiment: In vitro SEAP production; assay type: cell-based
# Description: To test the ability of the nanoparticles formulated with different deoxy sugar based dendrons to express SEAP in vitro, BHK cells were treated with nanoparticles. Each well of a 12 well dish of BHKs was treated with 20 μL (approximately 1 μg) of each formulation product diluted into a final volume of 500 μL with a 1:1 Optimem:PBS mix. The nontreated wells had 500 μL of 50/50 PBS/OptiMEM. Twenty four hours post-treatment or transfection, conditioned media from each culture was collected. The amount of SEAP was quantified using the Invitrogen NovaBright™ Phospha-Light™ EXP Assay kits for SEAP detection according to the manufacturer's protocol. The amount of SEAP in the media samples are reported in Arbitrary Units (A.U.) as measured in a BioTek Synergy HTX microplate reader. Error bars are ±S.E.M. Referring to FIG. 4a, it was observed that the SEAP amount was higher with the PE Dendron_G2-2 deoxyGlucose-A1-Ricinoleic than the other regioisomers: PE Dendron_G2-1 deoxyGlucose-A1-Ricinoleic and PE Dendron_G2-6 deoxyGlucose-A1-Ricinoleic. […]
# SARS-CoV-2 Spike protein = experiment: COVID-19 Spike trimer direct serum ELISA after vaccination; assay type: in vivo
# [1] = Hydrodynamic size measurement by dynamic light scattering (DLS); assay type: physicochemical; conditions: nanoparticle composition with SEAP mRNA
# SEAP expression = experiment: In vivo SEAP production, deoxy sugar dendrons; design: species or system mice; conditions: FIG. 4 legend; SEAP mRNA nanoparticles
# Description: To test formulations of different monosaccharides based dendrons, the secreted embryonic alkaline phosphatase SEAP reporter system was used. For in vivo tests, mice were injected with nanoparticles at a dose of 5 ug of SEAP mRNA, and 16 hrs later, serum was collected from the mice. The amount of […] using the Invitrogen NovaBright™ Phospha-Light™ EXP Assay kits for SEAP detection according to the manufacturer's protocol. The amount of SEAP in the mouse serum samples are reported in Arbitrary Units (A.U.) as measured in a BioTek Synergy HTX microplate reader. Error bars are±S.E.M. Referring to FIG. 4b, it was observed that the SEAP amount was higher with the PE Dendron_G2-1 deoxyGlucose-A1-Ricinoleic than the other regioisomers: PE Dendron_G2-2 deoxyGlucose-A1-Ricinoleic and PE Dendron_G2-6 deoxyGlucose-A1-Ricinoleic. Referring to FIG. 5b, it was also observed that the SEAP amount was higher with the PE Dendron_G2-2 deoxyGlucose-A5-Ricinoleic than PE Dendron_G2-2 deoxyGlucose-A1-Ricinoleic indicating pKa of the ionizable delivery molecules influences the ability of the nanoparticles to deliver functionally active RNA.
# [2] = Encapsulation efficiency by Ribogreen assay; assay type: physicochemical; conditions: nanoparticle composition with SEAP mRNA, formulated at pH 5; dendron:DOPE:cholesterol:DMG-PEG2k 1:0.6:2.88:0.1
# Source text: As used herein, “encapsulated” can refer to a nanoparticle that provides an active agent or therapeutic agent with full encapsulation, partial encapsulation, or both. In an embodiment, the therapeutic agent is a nucleic acid (as a non-limiting example, a messenger RNA), In a preferred embodiment, the nucleic acid is fully encapsulated in the nanoparticle. In the context of nucleic acid therapeutic agents, full encapsulation may be determined by a Ribogreen® assay. RiboGreen® is an ultra-sensitive fluorescent nucleic acid stain for quantitating oligonucleotides and single-stranded DNA or RNA in solution (available from Thermo Fisher Scientific-US).
# Nanoparticles containing the deoxy sugar-modified polyesteramine dendron (e.g PE Dendron_G2-2 deoxyGlucose-A1-Ricinoleic):DOPE:cholesterol:DMG-PEG2k at molar ratios of 1:0.6:2.88:0.1 were formulated using NanoAssembir Benchtop (Precision NanoSystems Inc, Vancouver, BC, Canada)). RNA was diluted with DNase/RNase-Free, endotoxin free distilled water and sterile citrate buffer to a final desired pH. […] Encapsulation efficiency was measured to be 95% for the nanoparticle composition containing PE Dendron_G2-2 deoxyGlucose-A1-Ricinoleic and SEAP mRNA (formulated at pH 5) using Ribogreen® assay (Geall et al. 10.1073/pnas.1209367109 which is incorporated herein by reference as if fully set forth). […]
compound,measurement,setting,value
CCCCCC[C@H](O)C/C=C\CCCCCCCC(=O)NCCCN(C)CCCNC(=O)OCC(C)(COC(=O)NCCCN(C)CCCNC(=O)CCCCCCC/C=C\C[C@@H](O)CCCCCC)C(=O)OCC(C)(COC(=O)C(C)(COC(=O)NCCCN(C)CCCNC(=O)CCCCCCC/C=C\C[C@@H](O)CCCCCC)COC(=O)NCCCN(C)CCCNC(=O)CCCCCCC/C=C\C[C@@H](O)CCCCCC)C(=O)OCc1cn([C@H]2C(O)O[C@H](CO)[C@@H](O)[C@@H]2O)nn1 (some centres unmarked),SEAP amount in conditioned media,"BHK cells; FIG. 4a, BHK cells, 24 h, about 1 μg, compared with regioisomers 1 deoxyGlucose-A1 and 6 deoxyGlucose-A1",higher
same,SEAP protein production in vitro,"BHK cells; FIG. 4 legend, SEAP mRNA nanoparticles",resulted in SEAP protein production
same,Immunogenicity upon IM administration (anti-Spike IgG titer),SARS-CoV-2 Spike protein; compared with Dlin-MC3-DMA control,superior
same,Endpoint dilution titer of serum anti-Spike IgG,SARS-CoV-2 Spike protein; compared with PE Dendron_G2-2 deoxyGlucose-A5-Ricinoleic,higher
same,"Nanoparticle size at strongest intensity (Z average, DLS)",[1],113.3 nm·days
same,Polydispersity index of size distribution,[1]; single peak,low
same,SEAP protein production in vivo,SEAP expression,resulted in SEAP protein production
same,Encapsulation efficiency,[2],95%
